Values quoted from earlier work, collected in patent US9764130B2, “Transdermal systems for the delivery of therapeutic agents including granisetron using iontophoresis” (Teva Pharmaceuticals International GmbH, priority 2005, dated 2017).

Conditions: transdermal iontophoresis from anode pad; hairless rat animal model; AAPS 2003/2004 abstracts

time within which a therapeutic dosage is achieved with iontophoresis: two
SMILES: CN1C2CCCC1CC(NC(=O)c1nn(C)c3ccccc13)C2 (stereo not shown) [granisetron]
